Measurements reported in patent publication US20210228566A1, “METHODS OF TREATING A NEUROLOGICAL OR PSYCHIATRIC DISORDER” (priority 2018, published 2021).
Each block holds one compound with its values, some of them ahead of it.

Key:
human VMAT1 transporter = molecular target: T1, human VMAT1 transporter (Homo sapiens, UniProt P54219); assay: uptake in cells expressing VMAT1; type: cell-based; details: for inhibitory activity on uptake through VMAT1: concentrations up to 10 μM
T1 construct: expressed in transfected cells
T1 sequence (P54219 1-525): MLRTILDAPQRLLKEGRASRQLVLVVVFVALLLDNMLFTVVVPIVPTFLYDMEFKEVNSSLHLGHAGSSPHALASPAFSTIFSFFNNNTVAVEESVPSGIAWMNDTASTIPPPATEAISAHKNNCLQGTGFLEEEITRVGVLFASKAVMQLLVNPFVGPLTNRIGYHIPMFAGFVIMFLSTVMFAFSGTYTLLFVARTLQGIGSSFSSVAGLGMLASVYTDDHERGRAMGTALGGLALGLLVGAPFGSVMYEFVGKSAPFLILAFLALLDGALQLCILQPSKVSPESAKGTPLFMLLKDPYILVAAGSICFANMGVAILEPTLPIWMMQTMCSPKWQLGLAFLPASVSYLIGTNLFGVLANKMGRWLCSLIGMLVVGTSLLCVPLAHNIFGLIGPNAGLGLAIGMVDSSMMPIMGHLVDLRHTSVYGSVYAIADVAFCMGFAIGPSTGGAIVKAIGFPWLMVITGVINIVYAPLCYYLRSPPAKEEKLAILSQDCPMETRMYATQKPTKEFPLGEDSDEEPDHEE
Method: None of the TBZ or VBZ metabolites had any affinity for the monoamine transporters DAT, SERT or NET. To complete the selectivity profile for VMAT2, the functional activity for the human VMAT1 transporter of these compounds was tested in cells expressing VMAT1.

[1] = plasma concentrations of circulating metabolites; type: in vivo; details: after VBZ
[2] = ptosis, in vivo surrogate measure
[3] = case reports of hypersensitivity and dermatological reactions; type: in vivo, human
Excerpt: A total of 17 cases of hypersensitivity reaction and/or dermatological findings and evidence for possible causal relationship with VBZ have been reported either spontaneously (6) or after solicitation (11). Of these 17 cases, 14 cases had both hypersensitivity reaction with dermatological findings (5 were serious and 9 were non-serious).
In these 14 cases, there was a reasonable temporal relationship between the initiation of the drug and the onset of events. In 1 case, both dechallenge and rechallenge was positive. In 2 cases, the events worsened when the drug was continued and the events resolved on discontinuation of VBZ. In 3 cases, dechallenge was considered as positive. In 7 cases, the event resolved or was resolving following discontinuation of drug and receiving appropriate treatment, implying a causal association. Additionally, among these 7 cases, there was 1 case in which the event re-occurred on readministration of the drug. In the remaining 1 case, the events started immediately after starting VBZ, the subject continued taking VBZ and the event continued; therefore, a causal association between the drug and the event could not be ruled out.
Of the 17 cases, there were 2 cases in which the patients experienced hypersensitivity reaction with evidence for a possible causal relationship with VBZ, but without dermatological findings. Both these cases were non-serious. In 1 case, dechallenge was positive and in another case, the event re-occurred with their second dose of drug, implying a causal association between the drug and the events.
Of the 17 cases, there was 1 case in which the patient experienced only dermatological findings with evidence for a possible causal relationship to VBZ, but without evidence of other hypersensitivity reaction. This case was non-serious and dechallenge was positive in this case. In view of the information reported in these 17 cases there appears to be a possible causal relationship between the events and administration of VBZ. […] 2017.
Based on the case reports received through 10 Oct.

[4] = prolactin release, in vivo surrogate measure

SMILES: COc1cc2c(cc1OC)[C@H]1C[C@@H](O)[C@H](CC(C)C)CN1CC2 [R,R,R-DHTBZ, (2R, 3R,11bR)-3-isobutyl-9,10-dimethoxy-1,3,4,6,7,11b-hexahydro-2H-pyrido[2,1-a]isoquinolin-2-ol]
- effect on uptake through VMAT1 (human VMAT1 transporter): no significant effect on the uptake of monoamines through VMAT1
- inhibitory activity on uptake through VMAT1 (human VMAT1 transporter): no significant inhibitory activity
- serum prolactin levels [4]: induced a similar increase in serum prolactin levels as TBZ
- ptosis [2]: induced ptosis in an equivalent manner
- plasma half-life of metabolite [1]: half-lives similar to VBZ

SMILES: COC(=O)[C@H]1[C@H]2C[C@@H]3c4[nH]c5cc(OC)ccc5c4CCN3C[C@H]2C[C@@H](OC(=O)c2cc(OC)c(OC)c(OC)c2)[C@@H]1OC [reserpine, reference compound]
- effect on uptake through VMAT1 (human VMAT1 transporter): substantially inhibited uptake through VMAT1

Second part, led by results:

- inhibitory activity on uptake through VMAT1 (human VMAT1 transporter): no significant inhibitory activity
- plasma half-life of metabolite [1]: half-lives similar to VBZ
SMILES: COc1cc2c(cc1OC)[C@H]1C[C@@H](OC(=O)[C@@H](N)C(C)(C)O)[C@H](CC(C)C)CN1CC2 [NBI-136110]
- effect on uptake through VMAT1 (human VMAT1 transporter): no significant effect on the uptake of monoamines through VMAT1

- inhibitory activity on uptake through VMAT1 (human VMAT1 transporter): no significant inhibitory activity
SMILES: COc1cc2c(cc1OC)C1CC(=O)C(CC(C)C)CN1CC2 (stereo not shown) [TBZ, Tetrabenazine, reference compound]
- effect on uptake through VMAT1 (human VMAT1 transporter): no significant effect on the uptake of monoamines through VMAT1
- ptosis [2]: induced ptosis in an equivalent manner

- inhibitory activity on uptake through VMAT1 (human VMAT1 transporter): no significant inhibitory activity
- non-serious cases with hypersensitivity reaction and dermatological findings ([3]; of the 14 cases): 9 cases
- serious cases with hypersensitivity reaction and dermatological findings ([3]; of the 14 cases): 5 cases
- cases with both hypersensitivity reaction with dermatological findings ([3]; of the 17 cases): 14 cases
- cases of hypersensitivity reaction without dermatological findings ([3]; of the 17 cases, non-serious): 2 cases
- cases with only dermatological findings ([3]; of the 17 cases, non-serious): 1 case
- cases of hypersensitivity reaction and/or dermatological findings with evidence for possible causal relationship ([3]; reported spontaneously (6) or after solicitation (11), through 10 Oct. 2017): 17 cases
SMILES: COc1cc2c(cc1OC)[C@H]1C[C@@H](OC(=O)[C@@H](N)C(C)C)[C@H](CC(C)C)CN1CC2 [Valbenazine, (S)-2-amino-3-methyl-butyric acid (2R, 3R,11bR)-3-isobutyl-9,10-dimethoxy-1,3,4,6,7,11b-hexahydro-2H-pyrido[2,1-a]isoquinolin-2-yl ester]
- effect on uptake through VMAT1 (human VMAT1 transporter): no significant effect on the uptake of monoamines through VMAT1
- ptosis [2]: induced ptosis in an equivalent manner
- severe hypersensitivity or dermatological reactions suggesting Stevens Johnson Syndrome, Toxic Epidermal Necrolysis, or Drug Rash with Eosinophilia and Systemic Symptoms ([3]; through 10 Oct. 2017): no cases
